Source: patent US9302991B2, “Arylamide derivatives as TTX-S blockers” (RaQualia Pharma Inc., priority 2010, dated 2016)

Tests used:
Format in all cases: in vivo, Sprague-Dawley rats
[1] = test system: CFA-induced thermal hyperalgesia in rats; assay: Complete Freund's Adjuvant (CFA)-induced thermal hyperalgesia in rats; conditions: 30 mg/kg per os
Protocol: Complete Freund's Adjuvant (CFA)-Induced Thermal Hyperalgesia in Rats
Male Sprague-Dawley rats at 6 weeks old are purchased from Charles River Japan Inc., and housed in groups of two per cage under a 12-h light/dark cycle (lights on at 07:00) with access to food and water ad libitum. CFA-induced thermal hyperalgesia is assessed using the plantar test apparatus (Ugo Basile) as described by Hargreaves K et al. (Pain 1988, 32: 77-88). The animals are placed in an apparatus consisting of individual testing box on an elevated glass table and allowed to acclimate for at least 10 minutes. Following the habituation, a mobile radiant heat source is located under the table and heat stimulation is applied to the plantar surface of the right hind paw. The latency to remove its hind paw is defined as paw withdrawal latency (PWL) in sec. The cut-off point is set at 30 seconds to prevent tissue damage. CFA is prepared at a concentration of 2-3 mg/mL of Mycobacterium tuberculosis H37 RA in liquid paraffin. After disinfections with 70% ethanol, the rats are injected intraplantarly with 100 microL of CFA (200-300 microgram) into the right hind paw. Two days after CFA injection, PWL is measured in the same manner as mentioned above. […] The PWL is measured at the appropriated time after compound administration. […]

[2] = test system: CFA-induced weight bearing deficit in rats; assay: CFA-induced weight bearing deficit in rats; conditions: 10 mg/kg per os
Protocol: CFA-Induced Weight Bearing Deficit in Rats
Male Sprague-Dawley rats at 7 weeks old are purchased from Charles River Japan Inc., and housed in groups of two per cage under a 12-h light/dark cycle (lights on at 07:00) with access to food and water ad libitum. CFA-induced weight bearing (WB) deficit is assessed using Incapacitance tester (Linton Instrumentation). The animals are habituated to a plastic case that comes with Incapacitance tester before the day of CFA injection. On the day of CFA injection, the weight distribution of each hind paw is measured 3 times per rat using the tester, and the difference of weight distribution, weight on the right (injected) paw minus weight on left (non-injected) paw, is defined as WB deficit value in g. The duration of the each measurement is adjusted to 3 seconds. CFA is prepared at a concentration of 2-3 mg/mL of Mycobacterium tuberculosis H37 RA in liquid paraffin. After disinfections with 70% ethanol, the rats are injected intraplantarly with 100 microL of CFA (200-300 microgram) into the right hind paw. Two days after CFA injection, the weight distribution of each hind paw is measured and the WB deficit value is calculated in the same manner as mentioned above. […] The weight distribution of each hind paw is measured at the appropriated time after compound administration, and the WB deficit value is calculated as previously explained.

[3] = test system: CCI-induced static allodynia in rats; assay: Chronic Constriction Injury (CCI)-induced static allodynia in rats; conditions: 100 mg/kg per os
Protocol: Chronic Constriction Injury (CCU-Induced Static Allodynia in Rats
Male Sprague-Dawley rats at 7 weeks old are purchased from Charles River Japan Inc., and housed in groups of two per cage under a 12-h light/dark cycle (lights on at 07:00) with access to food and water ad libitum. CCI-induced static allodynia is assessed by von Frey hair (VFH) test. Surgery is performed according to the method of Bennett G J and Xie Y K (Pain 1988, 33: 87-107). The animals are anesthetized with intraperitoneal injection of pentobarbital sodium. The left common sciatic nerve is exposed at the level of the middle of the thigh, freed of adhering tissue, and four ligatures are loosely tided around it by using 4-0 silk thread. The incision is sutured, and the rats are allowed to recover in their cages with soft bedding. Sham operation is performed in the same manner except of sciatic nerve ligation. The animals are individually placed in a Plexiglas test chamber on an elevated grid to acclimate for 1 hour before the day of testing. […]
In the cases where continuous positive or negative responses are observed all the way out to the end of the stimulus spectrum, values of 0.25 and 15 g are assigned, respectively. […] The 50% PWT is measured at the appropriated time after compound administration.

Compound: CC(=O)Nc1cc(C(=O)NC(C)c2ccc(OCC(F)(F)F)nc2)ccn1 (single isomer, unassigned; (-)) [Example 1, (−)-2-acetamido-N-(1-(6-(2,2,2-trifluoroethoxy)pyridin-3-yl)ethyl)isonicotinamide]
- activity in CFA-induced thermal hyperalgesia (PWL) [1]: significant activity
- activity in CFA-induced weight bearing deficit [2]: significant activity
- activity in CCI-induced static allodynia (50% PWT, von Frey hair test) [3]: potent activity
